Laboratory results published in ChEMBL document CHEMBL1201862, “PubChem BioAssay data set” (2004).
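Step 1: Grow cells in 96-well plates. Step 2: Expose to compound for 48 hours at 5 concentrations. Step 3: Interpolate endpoints linearly; if unreached, use highest concentration. GI50 = concentration required for 50% inhibition of growth.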 The source made the active and inactive calls. Rule as the data show it: active = GI50 up to about 1.1 µM and inactive = higher.

Assays:
Experiment in all cases: NCI anticancer screen, dose series, 48 h
ACHN = test system: ACHN
MCF7 = test system: MCF7
Hs-578T = test system: Hs-578T
NCI-H226 = test system: NCI-H226
HL-60 = test system: HL-60
HOP-62 = test system: HOP-62
SK-MEL-2 = test system: SK-MEL-2
MOLT-4 = test system: MOLT-4
BT-549 = test system: BT-549
HCT-15 = test system: HCT-15
786-0 = test system: 786-0
PC-3 = test system: PC-3
SK-MEL-5 = test system: SK-MEL-5
RPMI-8226 = test system: RPMI-8226
OVCAR-3 = test system: OVCAR-3
RXF 393 = test system: RXF 393
MDA-MB-435 = test system: MDA-MB-435
DU-145 = test system: DU-145
SNB-19 = test system: SNB-19
HCC 2998 = test system: HCC 2998

Structure (SMILES)	GI50 (ACHN)	GI50 (MCF7)	GI50 (Hs-578T)	GI50 (NCI-H226)	GI50 (HL-60)	GI50 (HOP-62)	GI50 (SK-MEL-2)	GI50 (MOLT-4)	GI50 (BT-549)	GI50 (HCT-15)	GI50 (786-0)	GI50 (PC-3)	GI50 (SK-MEL-5)	GI50 (RPMI-8226)	GI50 (OVCAR-3)	GI50 (RXF 393)	GI50 (MDA-MB-435)	GI50 (DU-145)	GI50 (SNB-19)	GI50 (HCC 2998)
O=C(O)CCCC(=O)Nn1c(Cc2ccc(Cl)cc2)n[nH]c1=O	> 100 µM (inactive)	> 100 µM (inactive)	> 100 µM (inactive)	> 100 µM (inactive)	26.9 µM (inactive)	> 100 µM (inactive)	> 100 µM (inactive)	> 100 µM (inactive)	> 100 µM (inactive)	> 100 µM	> 100 µM (inactive)	> 100 µM (inactive)	> 100 µM (inactive)	> 100 µM (inactive)	> 100 µM (inactive)	> 100 µM (inactive)	> 100 µM (inactive)	> 100 µM (inactive)	–	–
CN(C)c1nc2n(CCO)ccnc-2c(=O)n1	> 100 µM (inactive)	–	> 100 µM (inactive)	> 100 µM (inactive)	–	> 100 µM (inactive)	> 100 µM (inactive)	> 100 µM (inactive)	> 100 µM (inactive)	> 100 µM	> 100 µM (inactive)	> 100 µM (inactive)	> 100 µM (inactive)	> 100 µM (inactive)	> 100 µM (inactive)	> 100 µM (inactive)	> 100 µM (inactive)	> 100 µM (inactive)	> 100 µM (inactive)	> 100 µM (inactive)
Cc1cc(C)c(S(=O)(=O)N(CCCCCCN)OCCCON(CCCCCCN)S(=O)(=O)c2c(C)cc(C)cc2C)c(C)c1	2.55 µM (inactive)	1.91 µM (inactive)	2.11 µM (inactive)	1.79 µM (inactive)	2.15 µM (inactive)	1.8 µM (inactive)	1.89 µM (inactive)	2.44 µM (inactive)	1.65 µM (inactive)	1.8 µM	1.9 µM (inactive)	1.77 µM (inactive)	1.82 µM (inactive)	2.43 µM (inactive)	1.76 µM (inactive)	1.7 µM (inactive)	2.13 µM (inactive)	1.37 µM (inactive)	1.62 µM (inactive)	–
O=C(/C=C/c1ccc(O)c([N+](=O)[O-])c1)CC(=O)/C=C/c1ccc(O)c([N+](=O)[O-])c1	> 100 µM (inactive)	53.5 µM (inactive)	> 100 µM (inactive)	> 100 µM (inactive)	21.7 µM (inactive)	48.9 µM (inactive)	41.1 µM (inactive)	–	> 100 µM (inactive)	38.5 µM	> 100 µM (inactive)	56.4 µM (inactive)	49.7 µM (inactive)	14.4 µM (inactive)	26.6 µM (inactive)	44.4 µM (inactive)	36.1 µM (inactive)	28.4 µM (inactive)	88.9 µM (inactive)	–
Cn1c(=O)n2n(c1=O)[C@@H](c1ccccc1)[C@H]2c1ccccc1	> 100 µM (inactive)	> 100 µM (inactive)	> 100 µM (inactive)	> 100 µM (inactive)	20.6 µM (inactive)	> 100 µM (inactive)	> 100 µM (inactive)	> 100 µM (inactive)	> 100 µM (inactive)	> 100 µM	> 100 µM (inactive)	> 100 µM (inactive)	> 100 µM (inactive)	–	> 100 µM (inactive)	> 100 µM (inactive)	–	–	> 100 µM (inactive)	> 100 µM (inactive)
CCc1ncc(CO)n1Cc1cccc2ccccc12	> 100 µM (inactive)	> 100 µM (inactive)	> 100 µM (inactive)	> 100 µM (inactive)	–	> 100 µM (inactive)	> 100 µM (inactive)	–	> 100 µM (inactive)	> 100 µM	> 100 µM (inactive)	> 100 µM (inactive)	> 100 µM (inactive)	73.3 µM (inactive)	> 100 µM (inactive)	> 100 µM (inactive)	> 100 µM (inactive)	> 100 µM (inactive)	> 100 µM (inactive)	–
